Laboratory results reported in patent US12459951B2, “Compounds that interact with RAS superfamily proteins for treatment of cancers, inflammatory diseases, rasopathies, and fibrotic disease” (SHY Therapeutics, LLC, priority 2022, dated 2025).

How the values were obtained:
Rho-A = target: T1, Rho-A (Homo sapiens, UniProt P61586); experiment: Ras GTP Binding Domain Inhibition Assay (Ras Superfamily Assay); conditions: read-out: Rho-A: % inh..
T1 construct: made in house
Summary of the method: (§1)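 His-tagged GTPases immobilised on nickel-coated plates, pre-incubated with compound (20 μM single point, or serial dilution for IC50) 3 h at room temperature, with or without 10-30 μg/mL Sos (residues 556-1049) in the final hour. Bound Cy3- or Cy5-GTP (100 nM, 45 min) measured by fluorescence after washing.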

KRas G12C mutant = experiment: as above; conditions: 20 μM compound; for KRas G12C mutant + SOS: % inh.: with SOS; for KRas G12C mutant: % inh.: without SOS
Summary of the method: as §1

KRas Q61H mutant = experiment: as above; conditions: 20 μM compound; for KRas Q61H mutant + SOS: % inh.: with SOS; for KRas Q61H mutant: % inh.: without SOS
Summary of the method: as §1

[1] = test system: Smad2/Smad3 phosphorylation; experiment: Phospho-Smad2/3 Inhibition Assay (western blot), Panc-1; type: cell-based, human; conditions: at 10 μM, Panc-1 pancreatic cancer cell line; starred symbols = activation
Summary of the method: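 Panc-1 cells (KRas G12D), starved overnight in 0.5% FBS, treated 3 h at 37° C with compound at 10 μM final (0.3% DMSO) or serial dilutions for IC50, then stimulated with 10 ng/ml TGF-b1 for 1 h. Phospho-Smad2 (Ser465/467) and phospho-Smad3 (Ser423/425) detected by western blot.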

T1 sequence (P61586 whole entry, the tested form may be a part): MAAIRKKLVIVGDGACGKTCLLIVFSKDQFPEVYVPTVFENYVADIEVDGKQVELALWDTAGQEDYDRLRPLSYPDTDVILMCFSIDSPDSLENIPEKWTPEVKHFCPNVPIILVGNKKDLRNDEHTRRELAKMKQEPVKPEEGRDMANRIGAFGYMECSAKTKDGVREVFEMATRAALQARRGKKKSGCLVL

## CO[C@H]1CC[C@@H](Nc2nc(-c3nccn3C)nn3cc(-c4ccn(C(C)C)n4)c(C)c23)C1 (racemic) [Compound 1, rac 6-(1-Isopropyl-1H-pyrazol-3-yl)-N-((1R,3S)-3-methoxycyclopentyl)-5-methyl-2-(1-methyl-1H-imidazol-2-yl)pyrrolo[2,1-f][1,2,4]triazin-4-amine]
Rho-A
  inhibition at 20 µM: 0%
KRas G12C mutant
  KRas G12C mutant + SOS: % inh.: 0 (0 = 0% inhibition)
  KRas G12C mutant: % inh.: 0 (0 = 0% inhibition)
KRas Q61H mutant
  KRas Q61H mutant + SOS: % inh.: 0 (0 = 0% inhibition)
  KRas Q61H mutant: % inh.: 0 (0 = 0% inhibition)

## CCc1nc(Nc2nc(-c3nccn3C)nn3cc(-c4ccn(C(C)C)n4)c(C)c23)nn1C [Compound 76, N-(5-Ethyl-1-methyl-1H-1,2,4-triazol-3-yl)-6-(1-isopropyl-1H-pyrazol-3-yl)-5-methyl-2-(1-methyl-1H-imidazol-2-yl)pyrrolo[2,1-f][1,2,4]triazin-4-amine]
[1]
  % inh of Smad2/3 phosphorylation in Panc-1: B (B = 26-45% inhibition)

## COc1cccnc1Nc1nc(-c2nccn2C)nn2cc(-c3ccn(C(C)C)n3)c(C)c12 [Compound 89, 6-(1-Isopropyl-1H-pyrazol-3-yl)-N-(3-methoxypyridin-2-yl)-5-methyl-2-(1-methyl-1H-imidazol-2-yl)pyrrolo[2,1-f][1,2,4]triazin-4-amine]
[1]
  % inh of Smad2/3 phosphorylation in Panc-1: C* (C* = 46-75% activation)

## Cn1ccnc1-c1nc(O)c2c(-c3ccccc3)ccn2n1 [Compound 39, 2-(1-Methyl-1H-imidazol-2-yl)-5-phenylpyrrolo[2,1-f][1,2,4]triazin-4-ol]
Rho-A
  inhibition at 20 µM: 0%
KRas G12C mutant
  KRas G12C mutant + SOS: % inh.: A (A = 1-25% inhibition)
  KRas G12C mutant: % inh.: B (B = 26-49% inhibition)
KRas Q61H mutant
  KRas Q61H mutant + SOS: % inh.: 0 (0 = 0% inhibition)
  KRas Q61H mutant: % inh.: A (A = 1-25% inhibition)

## CC(C)n1ccc(-c2cn3nc(-c4nccn4C)nc(O)c3c2-c2ccccc2)n1 [Compound 17, 6-(1-Isopropyl-1H-pyrazol-3-yl)-2-(1-methyl-1H-imidazol-2-yl)-5-phenylpyrrolo[2,1-f][1,2,4]triazin-4-ol]
Rho-A
  inhibition at 20 µM: 76 to 100%
KRas G12C mutant
  KRas G12C mutant + SOS: % inh.: C (C = 50-75% inhibition)
  KRas G12C mutant: % inh.: C (C = 50-75% inhibition)
KRas Q61H mutant
  KRas Q61H mutant + SOS: % inh.: C (C = 50-75% inhibition)
  KRas Q61H mutant: % inh.: C (C = 50-75% inhibition)

## COC1CCCN(c2nc(-c3nccn3C)nn3cc(-c4ccn(C(C)C)n4)c(C)c23)C1 (racemic) [Compound 4, rac 6-(1-Isopropyl-1H-pyrazol-3-yl)-5-methyl-2-(1-methyl-1H-imidazol-2-yl)-4-(3-(oxo-γ6-methyl)piperidin-1-yl)pyrrolo[2,1-f][1,2,4]triazine]
Rho-A
  inhibition at 20 µM: 1 to 25%
KRas G12C mutant
  KRas G12C mutant + SOS: % inh.: 0 (0 = 0% inhibition)
  KRas G12C mutant: % inh.: 0 (0 = 0% inhibition)
KRas Q61H mutant
  KRas Q61H mutant + SOS: % inh.: 0 (0 = 0% inhibition)
  KRas Q61H mutant: % inh.: 0 (0 = 0% inhibition)

## COCC1CCN(c2nc(-c3nccn3C)nn3cc(-c4ccn(C(C)C)n4)c(C)c23)C1 (racemic) [Compound 2, rac 6-(1-Isopropyl-1H-pyrazol-3-yl)-4-(3-(methoxymethyl)pyrrolidin-1-yl)-5-methyl-2-(1-methyl-1H-imidazol-2-yl)pyrrolo[2,1-f][1,2,4]triazine]
Rho-A
  inhibition at 20 µM: 0%
KRas G12C mutant
  KRas G12C mutant + SOS: % inh.: 0 (0 = 0% inhibition)
  KRas G12C mutant: % inh.: 0 (0 = 0% inhibition)
KRas Q61H mutant
  KRas Q61H mutant + SOS: % inh.: 0 (0 = 0% inhibition)
  KRas Q61H mutant: % inh.: 0 (0 = 0% inhibition)

## COc1cnc(Nc2nc(-c3nccn3C)nn3cc(-c4ccn(C(C)C)n4)c(C)c23)cn1 [Compound 83, 6-(1-Isopropyl-1H-pyrazol-3-yl)-N-(5-methoxypyrazin-2-yl)-5-methyl-2-(1-methyl-1H-imidazol-2-yl)pyrrolo[2,1-f][1,2,4]triazin-4-amine]
[1]
  % inh of Smad2/3 phosphorylation in Panc-1: B* (B* = 26-45% activation)

## COc1nccc(Nc2nc(-c3nccn3C)nn3cc(-c4ccn(C(C)C)n4)c(C)c23)n1 [Compound 86, 6-(1-Isopropyl-1H-pyrazol-3-yl)-N-(2-methoxypyrimidin-4-yl)-5-methyl-2-(1-methyl-1H-imidazol-2-yl)pyrrolo[2,1-f][1,2,4]triazin-4-amine]
[1]
  % inh of Smad2/3 phosphorylation in Panc-1: B* (B* = 26-45% activation)

## COC[C@@H]1CC[C@@H]1CNc1nc(-c2nccn2C)nn2cc(-c3ccn(C(C)C)n3)c(C)c12 (racemic) [Compound 3, rac 6-(1-Isopropyl-1H-pyrazol-3-yl)-N-(((1S,2R)-2-(methoxymethyl)cyclobutyl)methyl)-5-methyl-2-(1-methyl-1H-imidazol-2-yl)pyrrolo[2,1-f][1,2,4]triazin-4-amine]
Rho-A
  inhibition at 20 µM: 0%
KRas G12C mutant
  KRas G12C mutant + SOS: % inh.: 0 (0 = 0% inhibition)
  KRas G12C mutant: % inh.: 0 (0 = 0% inhibition)
KRas Q61H mutant
  KRas Q61H mutant + SOS: % inh.: 0 (0 = 0% inhibition)
  KRas Q61H mutant: % inh.: 0 (0 = 0% inhibition)

## COc1ncncc1Nc1nc(-c2nccn2C)nn2cc(-c3ccn(C(C)C)n3)c(C)c12 [Compound 88, 6-(1-Isopropyl-1H-pyrazol-3-yl)-N-(4-methoxypyrimidin-5-yl)-5-methyl-2-(1-methyl-1H-imidazol-2-yl)pyrrolo[2,1-f][1,2,4]triazin-4-amine]
[1]
  % inh of Smad2/3 phosphorylation in Panc-1: C* (C* = 46-75% activation)

## COCCNc1nc(-c2nccn2C)nn2cc(-c3ccn(C(C)C)n3)c(C)c12 [Compound 5, 6-(1-Isopropyl-1H-pyrazol-3-yl)-N-(2-methoxyethyl)-5-methyl-2-(1-methyl-1H-imidazol-2-yl)pyrrolo[2,1-f][1,2,4]triazin-4-amine]
Rho-A
  inhibition at 20 µM: 26 to 49%

## Cc1c(-c2ccn(C(C)C)n2)cn2nc(-c3nccn3C)nc(Nc3cn(C(C)C)nn3)c12 [Compound 78, N-(1-Isopropyl-1H-1,2,3-triazol-4-yl)-6-(1-isopropyl-1H-pyrazol-3-yl)-5-methyl-2-(1-methyl-1H-imidazol-2-yl)pyrrolo[2,1-f][1,2,4]triazin-4-amine]
[1]
  % inh of Smad2/3 phosphorylation in Panc-1: A (A = 1-25% inhibition)

## COc1ncc(Nc2nc(-c3nccn3C)nn3cc(-c4ccn(C(C)C)n4)c(C)c23)cn1 [Compound 80, 6-(1-Isopropyl-1H-pyrazol-3-yl)-N-(2-methoxypyrimidin-5-yl)-5-methyl-2-(1-methyl-1H-imidazol-2-yl)pyrrolo[2,1-f][1,2,4]triazin-4-amine]
[1]
  % inh of Smad2/3 phosphorylation in Panc-1: B* (B* = 26-45% activation)

## COCc1csc(Nc2nc(-c3nccn3C)nn3cc(-c4ccn(C(C)C)n4)c(C)c23)n1 [Compound 79, N-(6-(1-Isopropyl-1H-pyrazol-3-yl)-5-methyl-2-(1-methyl-1H-imidazol-2-yl)pyrrolo[2,1-f][1,2,4]triazin-4-yl)-4-(methoxymethyl)thiazol-2-amine]
[1]
  % inh of Smad2/3 phosphorylation in Panc-1: B* (B* = 26-45% activation)

## COc1ncccc1Nc1nc(-c2nccn2C)nn2cc(-c3ccn(C(C)C)n3)c(C)c12 [Compound 85, 6-(1-Isopropyl-1H-pyrazol-3-yl)-N-(2-methoxypyridin-3-yl)-5-methyl-2-(1-methyl-1H-imidazol-2-yl)pyrrolo[2,1-f][1,2,4]triazin-4-amine]
[1]
  % inh of Smad2/3 phosphorylation in Panc-1: D (D = 76-100% inhibition)

## Cc1c(-c2ccn(C(C)C)n2)cn2nc(-c3nccn3C)nc(Nc3ccn(C4CC4)n3)c12 [Compound 84, N-(1-Cyclopropyl-1H-pyrazol-3-yl)-6-(1-isopropyl-1H-pyrazol-3-yl)-5-methyl-2-(1-methyl-1H-imidazol-2-yl)pyrrolo[2,1-f][1,2,4]triazin-4-amine]
[1]
  % inh of Smad2/3 phosphorylation in Panc-1: C* (C* = 46-75% activation)

## Cc1c(-c2ccn(C(C)C)n2)cn2nc(-c3nccn3C)nc(Nc3nnc(C4CC4)[nH]3)c12 [Compound 81, N-(5-Cyclopropyl-4H-1,2,4-triazol-3-yl)-6-(1-isopropyl-1H-pyrazol-3-yl)-5-methyl-2-(1-methyl-1H-imidazol-2-yl)pyrrolo[2,1-f][1,2,4]triazin-4-amine]
[1]
  % inh of Smad2/3 phosphorylation in Panc-1: A* (A* = 1-25% activation)

## Cc1c(-c2ccn(C(C)C)n2)cn2nc(-c3nccn3C)nc(Nc3cnn(C(C)C)n3)c12 [Compound 77, 6-(1-Isopropyl-1H-pyrazol-3-yl)-N-(2-isopropyl-2H-1,2,3-triazol-4-yl)-5-methyl-2-(1-methyl-1H-imidazol-2-yl)pyrrolo[2,1-f][1,2,4]triazin-4-amine]
[1]
  % inh of Smad2/3 phosphorylation in Panc-1: C (C = 46-75% inhibition)

## COc1cc(Nc2nc(-c3nccn3C)nn3cc(-c4ccn(C(C)C)n4)c(C)c23)ccn1 [Compound 87, 6-(1-Isopropyl-1H-pyrazol-3-yl)-N-(2-methoxypyridin-4-yl)-5-methyl-2-(1-methyl-1H-imidazol-2-yl)pyrrolo[2,1-f][1,2,4]triazin-4-amine]
[1]
  % inh of Smad2/3 phosphorylation in Panc-1: B* (B* = 26-45% activation)

## Cc1c(-c2ccn(C(C)C)n2)cn2nc(-c3nccn3C)nc(Nc3cc4n(n3)CCO4)c12 [Compound 91, N-(6-(1-Isopropyl-1H-pyrazol-3-yl)-5-methyl-2-(1-methyl-1H-imidazol-2-yl)pyrrolo[2,1-f][1,2,4]triazin-4-yl)-2,3-dihydropyrazolo[5,1-b]oxazol-6-amine]
[1]
  % inh of Smad2/3 phosphorylation in Panc-1: 0 (0 = 0% inhibition)

## Cc1c(-c2ccn(C(C)C)n2)cn2nc(-c3nccn3C)nc(Nc3ncc(C4CC4)o3)c12 [Compound 90, 5-Cyclopropyl-N-(6-(1-isopropyl-1H-pyrazol-3-yl)-5-methyl-2-(1-methyl-1H-imidazol-2-yl)pyrrolo[2,1-f][1,2,4]triazin-4-yl)oxazol-2-amine]
[1]
  % inh of Smad2/3 phosphorylation in Panc-1: C* (C* = 46-75% activation)
